Values of other authors, collected in patent US20150216948A1, “CYTOCHROME P450 SUICIDE GENE SYSTEM” (priority 2012, published 2015).

Settings: 5-day infusion regimens, patients with lung and liver cancers

In the case of `CC(O)CCC(=O)c1ccoc1` (stereo not shown) [4-IPO, 1-[3-furyl]-4-hydroxypentanone], the “serum concentrations, highly efficient for killing human P427 mutant CYP4B1 transgenic human cells within 72 h” value is listed as “up to 90 μM”.
